# Source: US10300065B2, “Method of treating or prevention of atherothrombotic events in patients with history of myocardial infarction” (ASTRAZENECA AB, priority 2015, dated 2019)
# Tests used:
# [1] = clinical; type: in vivo; conditions: for concentration at 2 h: human, plasma, oral, post dose (2 h)
# Method: The pharmacokinetics (PK) and pharmacodynamics of the 60 mg bid dose had not previously been studied. […] 180 patients who had received >4 weeks of study medication had blood sampling in the morning pre-maintenance dose and again 2 h post-dose. All patients were receiving aspirin. […] Well-known VerifyNow® P2Y12 assay and light transmittance aggregometry (LTA; ADP 20 uM) were performed. Groups were compared using Kruskal-Wallis test with significance attached to P<0.01 to allow for multiple group comparisons.
# [2] = system: patients with acute coronary syndrome; conditions: cited from earlier work
structure (smiles),measurement,setting,value
"CCCSc1nc(N[C@@H]2C[C@H]2c2ccc(F)c(F)c2)c2nnn([C@@H]3C[C@H](OCCO)[C@@H](O)[C@H]3O)c2n1 [Ticagrelor, (1S,2S,3R,5S)-3-[7-{[(1R,2S)-2-(3,4-difluorophenyl)cyclopropyl]amino}-5-(propylthio)-3H-[1,2,3]-triazolo[4,5-d]pyrimidin-3-yl]-5-(2-hydroxyethoxy)cyclopentane-1,2-diol]",plasma ticagrelor levels lower with 60 mg vs 90 mg,[1]; 60 mg vs 90 mg,approximately ⅓
same,concentration at 2 h,[1]; 60 mg bid,448 ng/mL
same,concentration at 2 h,[1]; 90 mg bid,717 ng/mL
same,major adverse cardiovascular events including cardiovascular death compared with clopidogrel 75 mg once daily,"[2]; 90 mg twice daily added to aspirin for up to 1 year, acute coronary syndrome",reduced
same,effect on pulmonary function,"[2]; PLATO substudy, 199 subjects, after one month or after at least 6 months of chronic treatment",no indication of an adverse effect on pulmonary function
same,reports of gout,"[2]; PLATO, each treatment group",0.6%
same,serum uric acid level increase from baseline,"[2]; PLATO, ticagrelor 90 mg bid",approximately 0.6 mg/dL
